# Measured values: US20260374815A1, “PIGMENT EPITHELIUM-DERIVED FACTOR PEPTIDES AND USE FOR TREATING RETINAL DEGENERATION” (priority 2022, published 2026)
# Where no end group is shown, it is not given here.
# Key:
# [1] = Penetration or bioavailability of labeled peptide in retina after eyedrop (fluorometry of retinal extract); format: in vivo, mouse (C57/B16J); conditions: eyedrops; P21 mice; measured with the Alexa488-labeled peptide
# Description: To detect labeled peptide in vitro, the labeled Alexa488-17-mer[H105A] peptide was diluted in HBSS at the indicated concentrations (X-axis). A total of 30 μl of each was added to a well in 96-well plate in triplicates. RIPA buffer was added to one dissected mouse retina at 80 μl/retina. The suspension was sonicated for 30 sec at 4 °C followed by centrifugation at 4 °C. 10 min at […] (Eppendorf centrifuge) to separate the soluble retinal extract from the particulate material. The labeled peptide was diluted in retinal extract. A total of 30 μl of each was added to a well in 96-well plate. HBSS (FIG. 18A) or retinal extract (FIG. 18B) were used as a control at zero and different concentrations of 17mer[H105A]-488 as indicated in the x-axis. Fluorescence was determined using a fluorometer [BMG LabTech POLARstar OPTIMA] using wavelength at [Excitation 485-P, Emission 520-P]. Plots were obtained using GraphPad and non-linear fit were analyzed.
# At 1, 3, 6 and 24 hours after administration, retinas were dissected, their proteins were extracted with RIPA (80 μl/retina) and clarified by sonication and centrifugation. A total of 30 μl of extracts were used to determine the fluorescence of the peptide with a fluorometer (FIG. 19).
# [2] = tested on: photoreceptor function, rd10 mice; experiment: Electroretinography (ERG), rd10 mice; format: in vivo, mouse
# Description: (§1) At end point, eyes were enucleated and cross section of retinas from the treated animals were obtained. […] Third, electroretinography was performed in untreated and eyes treated with the 17mer[H105A] peptide eyedrops. Following an intense brief flash of light from darkness, the negative-going a-wave is generated by rod photocurrents and the positive-going b-wave by depolarizing bipolar-cell currents in combination with bipolar cell-dependent K^+ currents affecting Müller cells. […] Scotopic b wave was also measured for both rd10 and rd10/SerpinF1 null mice (FIG. 10C). The data from these different assays corroborate the PSVue® data and illustrate the efficacy of eyedrops of the 17mer[H105A] peptide for protecting the photoreceptors against malformation, death, and misfunction in vivo.
# At end point, eyes were enucleated and cross section of retinas from the treated animals were obtained. […] Electroretinography was also performed in untreated and eyes of rd10 mice treated with the […] eyedrops. […] The work was done with 3 animals, which may not give statistical significance.
# [3] = tested on: photoreceptor function, rd10/Serpinf1 null mice; experiment: Electroretinography (ERG), rd10/Serpinf1 null mice; format: in vivo, mouse; conditions: P21, daily eyedrops P15-P20
# Description: as §1
# [4] = P25, eyedrops every other day P15-P24
sequence,measurement,setting,value
QRTESIIARALYYDLIS [17mer[H105A]],time after eyedrop at which the peptide reached the retina,[1],1 to 24 h
same,ERG amplitude of the a-wave,"[2]; P21, daily eyedrops P15-P20",improvement
same,ERG amplitude of the a-wave,[2]; [4],improvement
same,ERG amplitude of the b-wave,[2]; [4],improvement
same,statistical difference in b-wave between treated and untreated,"[2]; P25, eyedrops every other day, 3 animals",no statistically significant difference
same,ERG amplitude of the a-wave,[3],improvement
